Assay [1] deals with 5′-TCGTCGA-3′ (reversed orientation match site). The format is binding.
Assay [2] concerns HIV-1 promoter (LEF-1-activated transcription). Briefly: HIV-1 transcription in vitro, H9 cell extract supplemented with HeLa nuclear extract. Particulars: mismatch polyamide. The format is biochemical. The text has this:
Based on the-results described above, it was expected that polyamide inhibition of LEF-1 binding would inhibit LEF-1-dependent transcription in an appropriate in vitro assay system. […] The H9 cell extract was supplemented with the HeLa cell-derived nuclear extract in order to obtain high levels of transcription. The H9 cell extract stimulates HIV-1 transcription ˜2.5 to 3-fold over the level of transcription observed with the HeLa extract alone and immunodepletion of LEF-1 protein from the H9 extract abolishes this activated transcription.
The effects of polyamides 1 and 2 on HIV-1 transcription were tested in an in vitro transcription assay with a HeLa cell nuclear extract (FIG. 21A). The effects of the polyamides on basal transcription by RNA polymerase II was monitored with a nuclear extract prepared from HeLa cells (J. D. Dignam, P. L. Martin, B. S. Shastry, R. G. Roeder, Describe eukaryotic gene transcription with purified components Meth. Enzymol. 101, 582 (1983)). […] Whole cell extracts of H9 cells in log phase growth were prepared by hypotonic lysis and contained 20 mg/ml protein, as determined by the Bradford reaction. […]
The effects of polyamides 3 and 4 on HIV-1 transcription in an in vitro system consisting of a cell-free extract prepared from cultured human lymphoid H9 cells supplemented with HeLa cell extract were determined. […]

The subject of assay [3] is TBP binding to the TATA box region of the adenovirus major late promoter. Briefly: Gel mobility shift, TBP binding to adenovirus major late promoter TATA box. Also noted: species or system human. The following applies: mismatch flanking sequences. How it is done: Regions of polyamide protection were determined by analysis of the digestion products on a 6% denaturing polyacrylamide sequencing gel. Storage phosphorimage analysis of the data was used to obtain dissociation constants for the binding reactions (using Kodak Storage Phosphor Screens and a Molecular Dynamics SF PhosphorImager). Recombinant human TBP (rhTBP) was obtained from Promega and was used in footprinting and gel mobility shift experiments as recommended. The reaction mixtures also contained 100 ng of poly dG-poly dC per 10 μL gel shift reaction or 50 μL footprinting reaction. For gel mobility shift assays, 6% polyacrylamide gels (20:1, acrylamide to bisacrylamide) contained 44 mM Tris-borate, pH 8.3, 1 mM EDTA, […] and 0.02% (v/v) NP-40. The same buffer was used for electrophoresis of 1 mm thick gels at 15 volts/cm for 2 hours at 4° C.

The subject of the next assay is wild-type HIV-1 promoter. Description: HIV-1 transcription in vitro with lymphoid cell nuclear extract. Format: biochemical. Particulars: read-out: polyamide concentration for fifty percent inhibition of HIV-1 transcription. As for the experimental part: The recognition sites for polyamide HIV-1 are of the form 5′-WGCWGCW-3″ (where W=A or T). Since a pyrrole-pyrrole pair can recognize either an A-T base pair or a T-A base pair, polyamide HIV-1 will recognize both the 5′ and 3′ flanking sequences of the HIV-1 TATA element. […] This concentration corresponds to only a 16-fold excess of polyamide over specific binding sites in the HIV-1 plasmid DNA (3 nM).

The test system of the next assay is HIV-1 strain WEAU1.6. Description: HIV-1 replication in human PBMC, p24 ELISA. The following applies: mismatch controls, alone or in combination. The format is cell-based. For orientation: An ELISA detects its analyte on a solid surface through an enzyme-linked reagent.
For another assay, the system named is Ets-1 ΔN331/DNA complex. Description: Gel mobility shift, Ets-1 binding to HIV-1 enhancer oligonucleotide.
The test system of assay [4] is IE86 binding to the CMV MIEP. Description: DNase I footprinting, IE86 binding to the crs element. Also noted: species or system human cytomegalovirus. The following applies: approximately 250 nM IE86. An excerpt: These compounds together with purified recombinant IE86 protein were used in DNase I footprint experiments with a singly end-labeled restriction fragment derived from the CMV major immediate early promoter. […] A singly-end labeled restriction fragment was used in DNase I footprinting reactions. […] Lanes 1 and 18 represent a G+A sequencing ladder. […] The location of the TATA box and the start of transcription are indicated.

Method for HIV-1 strain WEAU1.6: PBMC were infected with the T cell-tropic HIV-1 strain WEAU1.6, or the macrophage-tropic strain SF162. […] Polyamides were added to the culture medium and the levels of HIV-1 p24 viral capsid protein in the culture media were determined on subsequent days using a standard ELISA assay.
Human PBMC were separated from whole blood collected from normal adult volunteers by density gradient centrifugation as described. […] Human PBMC were activated with 2 μg/mL PHA and 20 units/mL of IL-2 for 2-3 days prior to HIV-1 infection. […] Free virus was removed by washing the cells in medium, and polyamides added to the culture. […] Virus replication in culture was measured by HIV-1 p24 viral capsid antigen ELISA (DuPont Medical Products, Boston, Mass.).
PBMC cultures were infected with the primary HIV-1 isolate WEAU 1.6 (kindly provided by G. Shaw), and virus replication measured by release of p24 capsid antigen into the medium that was detected by antibody-capture ELISA (Dupont). Each experiment involved a separate PBMC donor.

Regarding `CN(C)CCCNC(=O)CCNC(=O)c1cc(NC(=O)c2nc(NC(=O)CCNC(=O)c3cc(NC(=O)c4nc(NC(=O)CCCNC(=O)c5cc(NC(=O)c6nc(NC(=O)CCNC(=O)c7cc(NC(=O)c8nccn8C)cn7C)cn6C)cn5C)cn4C)cn3C)cn2C)cn1C` [polyamide 4, ImPy-β-ImPy-γ-ImPy-β-ImPy-β-Dp], in assay [1], the “fold lower affinity for 5′-TCGTCGA-3′ than for 5′-TGCTGCA-3′” value is approximately 10 fold. Further, in assay [2], the “inhibition of HIV-1 transcription” value is “fails to inhibit”. In assay [3], the “inhibition of TBP binding to adenovirus major late promoter TATA box” value is “did not inhibit”. Further, the IC50 with wild-type HIV-1 promoter was approximately 50 nM. Besides, in the assay with HIV-1 strain WEAU1.6, the “effect on the level of virus in the medium” value was “had no effect”. In addition, the “effect on Ets-1 DNA-binding / complex formation” value in the assay on Ets-1 ΔN331/DNA complex (polyamide preincubated with oligonucleotide, 100-400 nM) is recorded as “did not prevent”. Besides, in the assay on Ets-1 ΔN331/DNA complex (titration, mismatch polyamide), the “effect on complex formation in the same concentration range” value is “virtually no effect”. Further, the “interference with IE86 binding” value in assay [4] is reported as “did not interfere”.

The values above are taken from patent publication US6660255B1, “Inhibition of gene transcription by polyamide DNA-binding ligands” (California Institute of Technology, priority 1997, dated 2003).
